Laboratory results from patent US7053052B2, “Therapies involving mutated heat shock transcription factor” (priority 1997, dated 2006).

System: HepG2 cells
Test: Mortality from exposure to cyclophosphamide (LDH release, mortality)
Details: 20 mM, 24 hour exposure

## O=P1(N(CCCl)CCCl)NCCCO1 (stereo not shown) [cyclophosphamide, reference compound]
  mortality caused by cyclophosphamide: 38%
